We go through ten compounds from ChEMBL document CHEMBL1201862, “PubChem BioAssay data set” (2004).

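Exposure lasted 48 hours, with cells grown in 96-well plates and compounds tested at five concentrations. GI50 marks 50% less growth.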 Activity calls are given as the source filed them. Cut-off read from the data, not from the text of the source: active = GI50 up to about 1.1 µM and inactive = higher.

Test systems include CAKI-1; OVCAR-5; NCI-H460; KM12; HCC 2998; HCT-116; OVCAR-8; SF-268; OVCAR-4; NCI-H522; MDA-N; NCI-H226; U-251; UO-31; IGROV-1; LOX IMVI; SK-MEL-28; M14; HT-29; SK-OV-3.
Common to all, as to assay: DTP human tumour cell line panel, 48 h

For orientation: GI50 means the concentration at which growth is held to half of that of the control. With `CN(C)CCNC(=O)c1cccc2[nH]c(-c3ccncc3)nc12`, the GI50 with CAKI-1 is 2.55 µM (inactive); with OVCAR-5, 10.1 µM (inactive); with NCI-H460, 2.78 µM (inactive); in the test with KM12, 4.17 µM (inactive); in the test on HCC 2998, 1.95 µM (inactive); in the test with HCT-116 it was 4.07 µM (inactive). Also, the GI50 with OVCAR-8 was 6.68 µM (inactive); in the test with SF-268, 11.4 µM (inactive); in the test on OVCAR-4, 9.29 µM (inactive); in the test with NCI-H522, 1.88 µM (inactive); with MDA-N, 1.74 µM (inactive); in the test with NCI-H226 it was 15.2 µM (inactive). Besides, the GI50 was 3.1 µM (inactive) in the test with U-251; 2.77 µM (inactive) with UO-31; 7.5 µM (inactive) with IGROV-1; 0.733 µM (active) in the test with LOX IMVI; 1.86 µM (inactive) in the test with SK-MEL-28; 1.82 µM (inactive) in the test with M14. For the same compound, the GI50 with HT-29 was 2.61 µM (inactive).

Turning to `CC(C)[Si](CC1=CCCCC12C(=O)N(COCC[Si](C)(C)C)c1ccccc12)(C(C)C)C(C)C` (stereo not drawn), the GI50 with CAKI-1 is > 100 µM (inactive); in the test with OVCAR-5, 27.2 µM (inactive); in the test with SK-OV-3, > 100 µM (inactive); in the test on NCI-H460, 82.2 µM (inactive); in the test with KM12, > 100 µM (inactive); with HCC 2998 it was 65.6 µM (inactive). In addition, the GI50 in the test with OVCAR-8 was 89.3 µM (inactive); in the test with SF-268, > 100 µM (inactive); in the test with OVCAR-4 it was > 100 µM (inactive); in the test on NCI-H522 it was 41.8 µM (inactive); with MDA-N it was > 100 µM (inactive); in the test on NCI-H226, > 100 µM (inactive). For the same compound, the GI50 in the test on U-251 was > 100 µM (inactive); with UO-31, > 100 µM (inactive); in the test with IGROV-1, > 100 µM (inactive); with LOX IMVI it was 29.2 µM (inactive); in the test with SK-MEL-28, 92.5 µM (inactive); in the test with M14, > 100 µM (inactive). The GI50 with HT-29 is 51.6 µM (inactive).

On to `O=C(C#Cc1ccccc1)N1CCCCC1`, for which the GI50 was 83.9 µM (inactive) in the test with CAKI-1; > 100 µM (inactive) in the test on OVCAR-5; > 100 µM (inactive) with SK-OV-3; 44.6 µM (inactive) with NCI-H460; > 100 µM (inactive) in the test on KM12; 84.7 µM (inactive) in the test with HCC 2998. Also, the GI50 with HCT-116 is 16.8 µM (inactive); in the test with OVCAR-8 it was 48.6 µM (inactive); with SF-268, 90.2 µM (inactive); in the test with OVCAR-4, 80 µM (inactive); in the test on NCI-H522, > 100 µM (inactive); in the test on MDA-N, 86.5 µM (inactive). Besides, the GI50 with NCI-H226 is > 100 µM (inactive); in the test on U-251, 84.1 µM (inactive); in the test with IGROV-1, 65 µM (inactive); in the test with LOX IMVI, 48.9 µM (inactive); in the test on SK-MEL-28 it was > 100 µM (inactive); with M14, 84.1 µM (inactive). In the test with HT-29, the GI50 was 29 µM (inactive).

As for `CC1(C)C2CC3C(C)(C2)C31c1cc(Cl)ccc1N` (stereo not drawn), the GI50 with CAKI-1 was 15.6 µM (inactive); in the test with OVCAR-5, 16 µM (inactive); with SK-OV-3, 15.5 µM (inactive); with NCI-H460 it was 15.1 µM (inactive); in the test with KM12, 14.4 µM (inactive); with HCC 2998, 15 µM (inactive). Besides, the GI50 is 2.23 µM (inactive) in the test with HCT-116; 15.1 µM (inactive) in the test with OVCAR-8; 13.8 µM (inactive) with SF-268; 15.2 µM (inactive) in the test on OVCAR-4; 6.71 µM (inactive) with NCI-H522; 12.2 µM (inactive) with MDA-N. Also, the GI50 was 17.8 µM (inactive) in the test on NCI-H226; 15.2 µM (inactive) in the test with U-251; 13.9 µM (inactive) with UO-31; 14.5 µM (inactive) in the test with IGROV-1; 13.6 µM (inactive) with LOX IMVI; 17.3 µM (inactive) with SK-MEL-28. Moreover, the GI50 in the test on M14 was 12.4 µM (inactive); in the test on HT-29, 14.5 µM (inactive).

As for `CC(NC(=O)N(C)C)NC(=O)N(C)C`, the GI50 in the test with CAKI-1, in the test on SK-OV-3, in the test with NCI-H460, in the test with KM12, in the test on HCC 2998 and in the test with HCT-116 was > 10 µM (inactive) throughout. The GI50 in the test on OVCAR-8, in the test with SF-268, in the test on OVCAR-4, in the test on NCI-H522, in the test with MDA-N and in the test on NCI-H226 was > 10 µM (inactive) throughout. In addition, the GI50 with U-251, with UO-31, in the test on IGROV-1, in the test with LOX IMVI, in the test on SK-MEL-28 and in the test with M14 was > 10 µM (inactive) each time. Also, the GI50 with HT-29 is > 10 µM (inactive).

Consider `CCN(C(=O)N[C@@H](Cc1ccccc1)C(=O)N[C@@H](CC(C)C)C(=O)OC)c1ccccc1`, for which the GI50 in the test with CAKI-1 was 32.6 µM (inactive); in the test with OVCAR-5, 23.2 µM (inactive); in the test on SK-OV-3, 40.6 µM (inactive); in the test with NCI-H460, 12.4 µM (inactive); with KM12, 29.4 µM (inactive); in the test with HCC 2998, 30.8 µM (inactive). Further, the GI50 is 20.2 µM (inactive) in the test with HCT-116; 15.3 µM (inactive) with OVCAR-8; 28.1 µM (inactive) in the test with OVCAR-4; 9.55 µM (inactive) with NCI-H522; 69.3 µM (inactive) in the test on MDA-N; 19.5 µM (inactive) in the test on NCI-H226. Moreover, the GI50 is 25.9 µM (inactive) in the test with U-251; 18.1 µM (inactive) in the test with UO-31; 17 µM (inactive) in the test on IGROV-1; 13.8 µM (inactive) in the test with LOX IMVI; 17.5 µM (inactive) in the test with SK-MEL-28; 8.24 µM (inactive) with M14. The GI50 with HT-29 is 14.3 µM (inactive).

For the compound `CC[C@]1(Cc2ccc(OC)c(OC)c2)C2CC(C(=O)OC)ON2O[C@H](OCc2ccccc2)[C@@H]1OC(C)=O` (stereo partly drawn), the GI50 with CAKI-1 was > 100 µM (inactive); in the test on OVCAR-5, > 100 µM (inactive); in the test with SK-OV-3 it was > 100 µM (inactive); with NCI-H460 it was > 100 µM (inactive); in the test with KM12 it was > 100 µM (inactive); with HCC 2998 it was 39.2 µM (inactive). Also, the GI50 with HCT-116, in the test with OVCAR-8, in the test with OVCAR-4, in the test on NCI-H522, in the test with MDA-N and with NCI-H226 was > 100 µM (inactive) in each case. The GI50 in the test on U-251 is > 100 µM (inactive); with UO-31, > 100 µM (inactive); with IGROV-1 it was 42.4 µM (inactive); in the test with LOX IMVI it was > 100 µM (inactive); in the test with SK-MEL-28, > 100 µM (inactive); with M14, > 100 µM (inactive). Further, the GI50 in the test with HT-29 is > 100 µM (inactive).

Consider `CC(O)C1CC1(CO)CNc1cc(Cl)nc(N)n1` (stereo not drawn), for which the GI50 in the test on CAKI-1, in the test on OVCAR-5, in the test with SK-OV-3, in the test with NCI-H460, in the test with KM12 and in the test with HCC 2998 was > 100 µM (inactive) throughout. In addition, the GI50 with HCT-116, in the test with OVCAR-8, in the test with SF-268, in the test with OVCAR-4, in the test with NCI-H522 and with MDA-N was > 100 µM (inactive) each time. In addition, the GI50 in the test on NCI-H226, in the test with U-251, with UO-31, with IGROV-1, with LOX IMVI and in the test with SK-MEL-28 was > 100 µM (inactive) in each case. For the same compound, the GI50 with HT-29 is > 100 µM (inactive).

As to `CCOc1ccc(NC(=O)C(=O)Nn2c(N)nnc2N)cc1`, the GI50 with CAKI-1, in the test on OVCAR-5, in the test with SK-OV-3, in the test with NCI-H460, with KM12 and with HCC 2998 was > 100 µM (inactive) in each case. In addition, the GI50 in the test on HCT-116, in the test on OVCAR-8, with SF-268, with OVCAR-4, in the test on NCI-H522 and with MDA-N was > 100 µM (inactive) each time. Also, the GI50 with NCI-H226, in the test on U-251, in the test with UO-31, in the test on IGROV-1, with LOX IMVI and in the test on SK-MEL-28 was > 100 µM (inactive) in each case. Further, the GI50 in the test on M14 and in the test on HT-29 was > 100 µM (inactive) each time.

Regarding `CCCCCCCCCCc1c2nc(c(CCCCCCCCCC)c3ccc([nH]3)c(CCCCCCCCCC)c3nc(c(CCCCCCCCCC)c4ccc1[nH]4)C=C3)C=C2`, the GI50 in the test with CAKI-1, with OVCAR-5, in the test with SK-OV-3, in the test with NCI-H460, in the test with KM12 and in the test with HCC 2998 was > 100 µM (inactive) throughout. The GI50 in the test on HCT-116, with OVCAR-8, with SF-268, with OVCAR-4, in the test on NCI-H522 and in the test with MDA-N was > 100 µM (inactive) in each case. The GI50 with NCI-H226, with U-251, in the test on UO-31, in the test on IGROV-1, with LOX IMVI and with SK-MEL-28 was > 100 µM (inactive) in each case. Moreover, the GI50 in the test with M14 and with HT-29 was > 100 µM (inactive) throughout.
